Laboratory results published in patent US6365621B1, “Remedies or preventives for intractable epilepsy” (Pharmaceutical Co., Ltd., priority 1998, dated 2002).
“And” between values parts separate entries of the source, which are not always exact repeats. Equal values may be shown once.

Columns and labels:
[1] = test system: fully amygdala kindled rats; assay: Seizures in fully amygdala kindled rats (GST stimulation); format: in vivo, rat; conditions: for Change of ADD (%): afterdischarge duration before administration = 100; for Change of MSD (%): motor seizure duration before administration = 100
Description: [Method for preparing a kindling model] Male Wistar rats (weight: 200-250 g, Tokyo Jikken Dobutsu) were used, and pentobarbital (50 mg/kg, Dinabot) and ketamine (50 mg/kg, Sankyo Co., Ltd.) were used as anesthetic agents.
A dose-response of nefiracetam (15-180 mg/kg) with respect to a kindling seizure induced GTS stimulation intensity was evaluated in terms of the following parameters: seizure stage, and afterdischarge duration at the sitimulated amygdala and motor seizure duration.
In accordance with the method of Racine et al. (Modification of seizure activity by electrical stimulation: II motor seizure. Electroencephalography Clin. Neurophysiol. 1972. 32: 281-294), seizures were classified into the following five stages: stage 1 (chewing); stage 2 (head nodding); stage 3 (forelimb clonus); stage 4 (rearing); and stage 5 (rearing and falling).
Motor seizure duration (seconds) was represented by the total duration of stages 3 through 5. Stage 1 or Stage 2 is a seizure symptom of the limbic system, and Stage 3, 4, or 5 is regarded a motor seizure (Sato, M., Racine, R. J., McIntyre, D. C., Kindling: basic mechanisms and clinical validity, Electroencephalography Clin. Neurophysiol. 1990, 76: 459-472).
Afterdischarge duration (seconds) was recorded by use of an electrode for recording, and was represented by the seizure-discharge duration shown in a electroencephalogram, which is induced by a kindling stimulation. Nefiracetam was dissolved into a solvent (0.5% carboxymethyl cellulose) and the solution was administered orally 90 minutes before GST stimulation, wherein the amount of administered nefiracetam is classified into several stages within a range of 15-180 mg/kg.
[Method] The rats used in this Example were of the same type in terms of the source of purchase, body weight, and age (week). For each rat, in the same manner as in of Example 1, there were performed anesthetization, setting of an electrode on the amygdala, fixation of the electrode at the cranial bone, and a kindling stimulation (50 Hz, sine wave).
For non-administered rats and nefiracetam-administered rats (120 mg/kg), the effect of the administration was evaluated when GST stimulation intensity was increased by a factor of two (GST 2) or three (GST 3). The effect of 120 mg/kg of nefiracetam on kindling seizures induced by one-fold, two-fold, and three-fold GTS stimulation was evaluated in terms of the following parameters: seizure stage, motor seizure duration, and afterdischarge duration.

[2] = test system: kainate-induced cortical focal seizures; assay: Kainate-induced cortical focal seizures: behavior and electroencephalogram; format: in vivo, rat; conditions: 100 mg/kg i.v. As to Decrease of Spikes: key: (+): effective; (−): ineffective. As to Sedative action: key: (+): effective; (−): ineffective. As to Spikes after 24 hours: key: (+): effective; (−): ineffective.
Description: [Method for measuring an electrophysiological effect] A stereotaxic operation was performed through the same manner as described in I-1 by use of Wistar male rats. A cannula was inserted in the left sensorimotor area for injection of kainic acid, and the cannula was simultaneously used as an electrode. A bipolar depth electrode was set in the bilateral caudatum, and screw electrodes were set in the right sensorimotor area, frontal sinus, and occipital bone. Seven days after operation, 1 μL of kainic acid solution (2 mg/mL) was injected so as to induce cortical focal seizures. After elapse of 1-2 hours from the injection of kainic acid, the same nefiracetam solution as described in I-1 (100 mg/kg) was intravenously injected, and behavior and electroencephalograms were recorded by use of a video electroencephalogram recorder. Suppression of seizures just after the administration of nefiracetam, changes in electroencephalograms, occurrence of seizures thereafter, and electroencephalogram observations were compared with those of the control group.

SMILES: Cc1cccc(C)c1NC(=O)CN1CCCC1=O [nefiracetam, N-(2,6-dimethylphenyl)-2-(2-oxo-1-pyrrolidinyl)acetamide]
- Change of stage (%) ([1]; 15 mg/kg p.o. 90 min before GST stimulation, seizure stage before administration = 100): 80.0%
- Change of ADD (%) ([1]; 15 mg/kg p.o.): 81.7%
- Change of stage (%) ([1]; 30 mg/kg p.o. 90 min before GST stimulation, seizure stage before administration = 100): 100.0%
- Change of ADD (%) ([1]; 30 mg/kg p.o.): 99.9%
- Change of stage (%) ([1]; 60 mg/kg p.o. 90 min before GST stimulation, seizure stage before administration = 100): 80.0%
- Change of ADD (%) ([1]; 60 mg/kg p.o.): 83.9%
- Change of stage (%) ([1]; 90 mg/kg p.o. 90 min before GST stimulation, seizure stage before administration = 100): 76.0%
- Change of ADD (%) ([1]; 90 mg/kg p.o.): 82.3%
- Change of stage (%) ([1]; 120 mg/kg p.o. 90 min before GST stimulation, seizure stage before administration = 100): 13.3%
- Change of ADD (%) ([1]; 120 mg/kg p.o.): 25.0%
- Effect on afterdischarge duration ([1]; 120 mg/kg, 3-times-GST stimulation intensity): the afterdischarge duration was restored
- Change of stage (%) ([1]; 120 mg/kg, GST intensity 1-fold, before administration = 100): 16.7%
- Change of MSD (%) ([1]; 120 mg/kg, GST intensity 1-fold): 11.1%
- Change of stage (%) ([1]; 120 mg/kg, GST intensity 2-fold, before administration = 100): 14.7%
- Change of MSD (%) ([1]; 120 mg/kg, GST intensity 2-fold): 15.2%
- Change of stage (%) ([1]; 120 mg/kg, GST intensity 3-fold, before administration = 100): 52.0%
- Change of MSD (%) ([1]; 120 mg/kg, GST intensity 3-fold): 43.8%
- Effect on afterdischarge duration ([1]; 120 mg/kg, one-fold GST stimulation intensity): significant and strong inhibition
- Effect on afterdischarge duration ([1]; 120 mg/kg, two-fold GST stimulation intensity): an effect on afterdischarge duration was reduced
- Change of stage (%) ([1]; 180 mg/kg p.o. 90 min before GST stimulation, seizure stage before administration = 100): 36.0%
- Change of ADD (%) ([1]; 180 mg/kg p.o.): 24.8%
- Effect on seizure stage, motor seizure duration and afterdischarge duration ([1]; 15-180 mg/kg p.o., GST stimulation): dose-dependent inhibition
- ED50 (effect on seizure stage) ([1]; regression curve by least-squares method, p.o., fully kindled rats): 114 mg/kg
- Seizures after awakening [2]: seizures did not appear after awakening
- Seizures after intravenous injection during status epilepticus [2]: the seizures disappeared immediately
- Time to awakening from sedation [2]: ≤ 60 min
- Decrease of Spikes ([2]; individual rats): +
- Disappear of seizures ([2]; individual rats): +
- Reappear of seizures ([2]; individual rats): −
- Sedative action ([2]; individual rats): +
- Spikes after 24 hours ([2]; individual rats): − and + (2×)
